Test results reported in patent US6660473B1, “C-terminal protein tagging” (Phylos, Inc., priority 1999, dated 2003).

Legend:
[1] = molecular target: ribosomal peptidyl transferase; settings: ribosomal peptidyl transferase site; cited from earlier work
[2] = tested on: stalled translation reaction (myc-dA30 in rabbit reticulocyte lysate); settings: 130 μM added to stalled translation reaction; 500 mM KCl, 20 mM MgCl2; anti-myc immunoprecipitation
Description: Myc dsDNA was generated by standard methods of PCR to include a 5′-T7 promoter for in vitro synthesis of mRNA using T7 polymerase and a deletion mutant of the tobacco mosaic virus 5′-UTR to induce efficient translation initiation in rabbit reticulocyte lysates. The 3′-end of the myc construct was devoid of stop codons to prevent protein release from the ribosome.
Transcription of the myc PCR product (using the MegaSHORTscript kit, Ambion) gave large quantities of RNA using T7 RNA polymerase. Purified RNA was then subjected to a splinted ligation reaction with a 5′-phosphorylated dA30 oligonucleotide catalyzed by T4 DNA ligase. The 3′-dA30 region facilitates ribosomal stalling and thereby increases the proportion of RNA-ribosome-protein complexes available for labeling. The purified myc-dA30 construct was then translated in rabbit reticulocyte lysate (Ambion) with ^35S-methionine and stalled under high salt conditions (500 mM KCl, 20 mM MgCl2).
Biotin-TEG-dCdCdA was used as a control. The radiolabled myc peptide was then isolated by immunoprecipitation with an anti-myc monoclonal antibody (Chemicon) and protein A sepharose (Sigma). Control and C-terminally-labeled peptide were then applied to a microscope slide prefunctionalized with NeutrAvidin™ (Pierce).

[3] = tested on: stalled translation reaction (10Fn3-dA30 in rabbit reticulocyte lysate); settings: labeling as in the myc experiment; Co2+-NTA purification

Row | Compound | Kd of unmodified puromycin [1] | immobilization of 35S-labeled myc epitope on NeutrAvidin slide (phosphorimaging) [2] | immobilization of radiolabeled 10Fn3 on NeutrAvidin-spotted chip (phosphorimaging) [3]
1 | COc1ccc(C[C@H](N)C(=O)N[C@H]2[C@@H](O)[C@H](n3cnc4c(N(C)C)ncnc43)O[C@@H]2CO)cc1 [puromycin] | in the micromolar range |  | 
2 | Biotin-TEG-dCdC-puromycin |  | biotin-dependent immobilization of myc epitope to the chip surface | presence of radiolabeled ^10Fn3
3 | Biotin-TEG-dCdCdA |  | no significant label | 
